The source made the active and inactive calls. No cut-off for these calls is given here.
Legend:
[1] = molecular target: Myosin light chain kinase 2, skeletal/cardiac muscle (Homo sapiens, UniProt Q9H1R3); experiment: Inhibition of human wild type MLCK2 using RB-S6P as substrate preincubated for 2 hrs followed by ATP addition and measured every 2 mins for […] by spectrophotometric analysis
[2] = molecular target: Serine/threonine-protein kinase SIK2 (Homo sapiens, UniProt Q9H0K1); experiment: Inhibition of human wild type SIK2 using RBER-CHKtide as substrate preincubated for 2 hrs followed by ATP addition and measured every 2 mins for […] by spectrophotometric analysis
[3] = molecular target: T1, Tyrosine-protein kinase ABL1 (Homo sapiens, UniProt P00519); conditions: Sf9, time 2.0 hrs
[4] = molecular target: SRSF protein kinase 1 (Homo sapiens, UniProt Q96SB4); experiment: Inhibition of human wild type SRPK1 using MBP as substrate preincubated for 2 hrs followed by ATP addition and measured every 2 mins for […] by spectrophotometric analysis
[5] = molecular target: cGMP-dependent protein kinase 2 (Homo sapiens, UniProt Q13237); experiment: Inhibition of human wild type PKG2 using RBER-GSK3(14to 27) as substrate preincubated for 2 hrs followed by ATP addition and measured every 2 mins for […] by spectrophotometric analysis
[6] = Inhibition of human wild type CDK2/A using RBER-CHKtide as substrate preincubated for 2 hrs followed by ATP addition and measured every 2 mins for […] by spectrophotometric analysis
[7] = molecular target: Fibroblast growth factor receptor 4 (Homo sapiens, UniProt P22455); experiment: Inhibition of human wild type FGFR4 using PolyEY as substrate preincubated for 2 hrs followed by ATP addition and measured every 2 mins for […] by spectrophotometric analysis
[8] = molecular target: Tyrosine-protein kinase BTK (Homo sapiens, UniProt Q06187); experiment: Inhibition of human wild type BTK using PolyEY as substrate preincubated for 2 hrs followed by ATP addition and measured every 2 mins for […] by spectrophotometric analysis
[9] = molecular target: Dual specificity tyrosine-phosphorylation-regulated kinase 1A (Homo sapiens, UniProt Q13627); experiment: Inhibition of human wild type DYRK1 using RBER-CHKtide as substrate preincubated for 2 hrs followed by ATP addition and measured every 2 mins for […] by spectrophotometric analysis
[10] = molecular target: Beta-adrenergic receptor kinase 1 (Homo sapiens, UniProt P25098); experiment: Inhibition of human wild type GRK2 using Casein as substrate preincubated for 2 hrs followed by ATP addition and measured every 2 mins for […] by spectrophotometric analysis
[11] = molecular target: Mitogen-activated protein kinase 9 (Homo sapiens, UniProt P45984); experiment: Inhibition of human wild type JNK2alpha2 using ATF2 as substrate preincubated for 2 hrs followed by ATP addition and measured every 2 mins for […] by spectrophotometric analysis
[12] = molecular target: Mitogen-activated protein kinase kinase kinase 20 (Homo sapiens, UniProt Q9NYL2); experiment: Inhibition of human wild type ZAK using MBP as substrate preincubated for 2 hrs followed by ATP addition and measured every 2 mins for […] by spectrophotometric analysis
[13] = test system: BaF3; experiment: Antileukemic activity against mouse BaF3 cells harbouring BCR-ABL1 T315I mutant non-transduced with 5-FU treated bone marrow xenografted in Balb/c mouse assessed as reduction in pleural effusions at 60 mg/kg, po administered twice daily; assay type: functional, organism-based
[14] = molecular target: Mitogen-activated protein kinase 11 (Homo sapiens, UniProt Q15759); experiment: Inhibition of human wild type p38 beta using ATF2 as substrate preincubated for 2 hrs followed by ATP addition and measured every 2 mins for […] by spectrophotometric analysis
[15] = molecular target: Ephrin type-A receptor 7 (Homo sapiens, UniProt Q15375); experiment: Inhibition of human wild type EPHA7 using PolyEY as substrate preincubated for 2 hrs followed by ATP addition and measured every 2 mins for […] by spectrophotometric analysis
[16] = molecular target: Serine/threonine-protein kinase WNK2 (Homo sapiens, UniProt Q9Y3S1); experiment: Inhibition of human wild type WNK2 using RBER-CHKtide as substrate preincubated for 2 hrs followed by ATP addition and measured every 2 mins for […] by spectrophotometric analysis
[17] = molecular target: Aurora kinase C (Homo sapiens, UniProt Q9UQB9); experiment: Inhibition of human wild type AuroraC using bio-4xCHKT as substrate preincubated for 2 hrs followed by ATP addition and measured every 2 mins for […] by spectrophotometric analysis
[18] = molecular target: Ephrin type-B receptor 4 (Homo sapiens, UniProt P54760); experiment: Inhibition of human wild type EPHB4 using PolyEY as substrate preincubated for 2 hrs followed by ATP addition and measured every 2 mins for […] by spectrophotometric analysis
[19] = molecular target: Serine/threonine-protein kinase MRCK alpha (Homo sapiens, UniProt Q5VT25); experiment: Inhibition of human wild type MRCK alpha using RB-S6P as substrate preincubated for 2 hrs followed by ATP addition and measured every 2 mins for […] by spectrophotometric analysis
[20] = molecular target: Tyrosine-protein kinase JAK2 (Homo sapiens, UniProt O60674); experiment: Inhibition of human wild type JAK2 using Poly(Ala,Glu,Lys,Tyr)6:2:5:1 as substrate preincubated for 2 hrs followed by ATP addition and measured every 2 mins for […] by spectrophotometric analysis
[21] = molecular target: Serine/threonine-protein kinase pim-1 (Homo sapiens, UniProt P11309); experiment: Inhibition of human wild type PIM1 using RBER-GSK3(14to 27) as substrate preincubated for 2 hrs followed by ATP addition and measured every 2 mins for […] by spectrophotometric analysis
[22] = molecular target: CDK3/Cyclin E (Homo sapiens, UniProt Q00526); experiment: Inhibition of human wild type CDK3/cyclinE using RBER-CHKtide as substrate preincubated for 2 hrs followed by ATP addition and measured every 2 mins for […] by spectrophotometric analysis; assay type: protein-complex assay
[23] = molecular target: Protein kinase C delta type (Homo sapiens, UniProt Q05655); experiment: Inhibition of human wild type PKC delta using 3xChocktide-PKC(19to 31) as substrate preincubated for 2 hrs followed by ATP addition and measured every 2 mins for […] by spectrophotometric analysis
[24] = molecular target: Insulin receptor (Homo sapiens, UniProt P06213); experiment: Inhibition of human wild type IR using Poly(Ala,Glu,Lys,Tyr)6:2:5:1 as substrate preincubated for 2 hrs followed by ATP addition and measured every 2 mins for […] by spectrophotometric analysis
[25] = molecular target: T1, Tyrosine-protein kinase ABL1; conditions: Sf9, time 2.0 hrs; remark: listed apart in the source
[26] = molecular target: Tyrosine-protein kinase SYK (Homo sapiens, UniProt P43405); experiment: Inhibition of human wild type SYK using PolyEY as substrate preincubated for 2 hrs followed by ATP addition and measured every 2 mins for […] by spectrophotometric analysis
[27] = molecular target: MAP kinase-activated protein kinase 2 (Homo sapiens, UniProt P49137); experiment: Inhibition of human wild type MAPKAPK2 using RBER-CHKtide as substrate preincubated for 2 hrs followed by ATP addition and measured every 2 mins for […] by spectrophotometric analysis
[28] = test system: Tyrosine-protein kinase ABL1 (Homo sapiens), P00519 [T315I]; conditions: time 2.0 hrs
[29] = test system: BaF3; experiment: Antitumor activity against mouse BaF3 cells harbouring BCR-ABL1 T315I mutant xenografted in Balb/c mouse model assessed as prolongation of animal survival at 100 mg/kg, po administered once daily for 21 days; assay type: functional, organism-based; conditions: time 21.0 day

Chain of CDK3/Cyclin E (P24864 whole entry): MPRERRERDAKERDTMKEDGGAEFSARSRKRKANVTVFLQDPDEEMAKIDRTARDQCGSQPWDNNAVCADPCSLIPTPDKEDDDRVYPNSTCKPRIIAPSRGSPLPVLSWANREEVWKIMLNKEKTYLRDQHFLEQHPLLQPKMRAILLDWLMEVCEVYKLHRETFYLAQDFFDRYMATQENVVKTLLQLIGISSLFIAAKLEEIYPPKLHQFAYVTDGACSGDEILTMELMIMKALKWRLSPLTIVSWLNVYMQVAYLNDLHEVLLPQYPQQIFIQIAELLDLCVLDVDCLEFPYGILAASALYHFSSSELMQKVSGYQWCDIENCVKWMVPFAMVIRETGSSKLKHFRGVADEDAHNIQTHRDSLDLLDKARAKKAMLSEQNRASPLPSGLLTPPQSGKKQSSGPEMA
Chain of CDK3/Cyclin E (Q00526 whole entry): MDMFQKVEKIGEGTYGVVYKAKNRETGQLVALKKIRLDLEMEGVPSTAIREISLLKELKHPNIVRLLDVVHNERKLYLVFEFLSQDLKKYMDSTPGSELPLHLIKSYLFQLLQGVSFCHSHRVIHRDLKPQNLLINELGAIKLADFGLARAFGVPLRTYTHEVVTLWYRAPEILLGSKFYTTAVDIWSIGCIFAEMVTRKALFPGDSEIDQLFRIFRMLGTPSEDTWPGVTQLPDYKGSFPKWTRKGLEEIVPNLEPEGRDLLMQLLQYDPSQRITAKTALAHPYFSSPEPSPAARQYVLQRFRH
Chain of SRSF protein kinase 1 (Q96SB4 whole entry): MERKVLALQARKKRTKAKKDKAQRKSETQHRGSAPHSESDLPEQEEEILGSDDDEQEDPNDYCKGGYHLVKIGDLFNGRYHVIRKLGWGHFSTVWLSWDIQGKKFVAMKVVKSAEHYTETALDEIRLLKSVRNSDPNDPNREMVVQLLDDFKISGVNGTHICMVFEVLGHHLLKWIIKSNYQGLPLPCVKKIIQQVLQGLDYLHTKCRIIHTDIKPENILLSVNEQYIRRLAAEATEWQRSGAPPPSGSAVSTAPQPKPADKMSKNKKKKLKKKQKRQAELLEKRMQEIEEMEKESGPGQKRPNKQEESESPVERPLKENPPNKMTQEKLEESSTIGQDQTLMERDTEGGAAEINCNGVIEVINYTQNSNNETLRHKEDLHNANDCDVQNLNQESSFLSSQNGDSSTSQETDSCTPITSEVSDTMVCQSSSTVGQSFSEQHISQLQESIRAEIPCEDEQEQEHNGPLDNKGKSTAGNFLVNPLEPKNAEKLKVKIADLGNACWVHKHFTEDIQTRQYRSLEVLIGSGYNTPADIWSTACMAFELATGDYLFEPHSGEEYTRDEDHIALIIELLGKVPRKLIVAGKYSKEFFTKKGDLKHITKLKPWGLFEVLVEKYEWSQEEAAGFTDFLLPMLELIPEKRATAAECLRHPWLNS
Chain of Beta-adrenergic receptor kinase 1 (P25098 whole entry): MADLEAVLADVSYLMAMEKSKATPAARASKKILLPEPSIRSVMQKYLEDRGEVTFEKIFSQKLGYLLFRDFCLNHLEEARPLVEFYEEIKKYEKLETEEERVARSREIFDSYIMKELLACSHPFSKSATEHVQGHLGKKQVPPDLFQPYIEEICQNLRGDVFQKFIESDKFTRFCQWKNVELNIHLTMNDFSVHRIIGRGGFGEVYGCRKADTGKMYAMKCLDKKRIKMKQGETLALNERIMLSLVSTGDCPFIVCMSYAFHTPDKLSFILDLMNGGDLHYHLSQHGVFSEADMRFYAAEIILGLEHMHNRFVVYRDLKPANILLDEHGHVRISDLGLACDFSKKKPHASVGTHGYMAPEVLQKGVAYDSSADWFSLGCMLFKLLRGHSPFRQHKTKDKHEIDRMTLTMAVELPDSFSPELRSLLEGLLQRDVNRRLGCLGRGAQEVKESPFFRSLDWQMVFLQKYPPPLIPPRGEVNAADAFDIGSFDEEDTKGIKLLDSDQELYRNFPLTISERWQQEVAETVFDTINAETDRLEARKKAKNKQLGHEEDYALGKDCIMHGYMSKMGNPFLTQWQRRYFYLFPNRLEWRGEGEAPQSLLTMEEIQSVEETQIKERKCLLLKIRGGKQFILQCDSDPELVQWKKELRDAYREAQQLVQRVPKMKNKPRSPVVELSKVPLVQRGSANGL
Chain of MAP kinase-activated protein kinase 2 (P49137 whole entry): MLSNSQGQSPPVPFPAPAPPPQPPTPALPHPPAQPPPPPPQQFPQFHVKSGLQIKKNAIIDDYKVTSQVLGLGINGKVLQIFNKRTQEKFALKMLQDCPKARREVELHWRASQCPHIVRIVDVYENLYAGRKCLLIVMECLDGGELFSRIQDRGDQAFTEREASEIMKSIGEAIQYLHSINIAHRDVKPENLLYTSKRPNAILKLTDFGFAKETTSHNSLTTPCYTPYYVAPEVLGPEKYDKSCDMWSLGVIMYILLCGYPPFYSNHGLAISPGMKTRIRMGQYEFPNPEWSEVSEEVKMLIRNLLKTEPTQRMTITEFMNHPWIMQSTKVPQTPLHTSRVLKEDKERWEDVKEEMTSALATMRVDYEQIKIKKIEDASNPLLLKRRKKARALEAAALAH
Chain of Ephrin type-A receptor 7 (Q15375 whole entry): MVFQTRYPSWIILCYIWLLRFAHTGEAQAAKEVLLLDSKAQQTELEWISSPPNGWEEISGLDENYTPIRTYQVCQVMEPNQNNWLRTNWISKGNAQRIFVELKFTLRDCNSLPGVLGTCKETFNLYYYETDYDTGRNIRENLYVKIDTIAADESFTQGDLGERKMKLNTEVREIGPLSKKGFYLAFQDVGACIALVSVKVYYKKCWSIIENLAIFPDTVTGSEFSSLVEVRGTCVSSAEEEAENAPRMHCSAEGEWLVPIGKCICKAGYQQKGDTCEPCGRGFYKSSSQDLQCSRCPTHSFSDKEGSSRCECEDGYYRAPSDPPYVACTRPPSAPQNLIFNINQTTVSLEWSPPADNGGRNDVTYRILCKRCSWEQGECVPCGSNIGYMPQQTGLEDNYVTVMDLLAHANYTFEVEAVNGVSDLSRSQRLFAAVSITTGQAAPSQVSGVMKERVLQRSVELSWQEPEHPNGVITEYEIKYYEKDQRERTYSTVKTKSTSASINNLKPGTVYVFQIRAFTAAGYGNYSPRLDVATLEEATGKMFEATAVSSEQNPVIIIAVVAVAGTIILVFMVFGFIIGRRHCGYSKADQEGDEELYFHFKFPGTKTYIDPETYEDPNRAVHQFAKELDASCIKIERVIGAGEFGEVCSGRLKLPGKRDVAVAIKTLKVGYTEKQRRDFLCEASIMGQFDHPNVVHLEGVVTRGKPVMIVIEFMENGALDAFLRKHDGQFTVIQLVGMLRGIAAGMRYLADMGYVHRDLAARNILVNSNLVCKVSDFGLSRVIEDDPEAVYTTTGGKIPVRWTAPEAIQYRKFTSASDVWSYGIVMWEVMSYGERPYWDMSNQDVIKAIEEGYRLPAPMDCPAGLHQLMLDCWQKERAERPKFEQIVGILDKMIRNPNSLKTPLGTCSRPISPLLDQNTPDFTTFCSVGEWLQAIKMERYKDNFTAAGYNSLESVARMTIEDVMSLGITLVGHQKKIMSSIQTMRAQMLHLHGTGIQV
Chain of Ephrin type-B receptor 4 (P54760 whole entry): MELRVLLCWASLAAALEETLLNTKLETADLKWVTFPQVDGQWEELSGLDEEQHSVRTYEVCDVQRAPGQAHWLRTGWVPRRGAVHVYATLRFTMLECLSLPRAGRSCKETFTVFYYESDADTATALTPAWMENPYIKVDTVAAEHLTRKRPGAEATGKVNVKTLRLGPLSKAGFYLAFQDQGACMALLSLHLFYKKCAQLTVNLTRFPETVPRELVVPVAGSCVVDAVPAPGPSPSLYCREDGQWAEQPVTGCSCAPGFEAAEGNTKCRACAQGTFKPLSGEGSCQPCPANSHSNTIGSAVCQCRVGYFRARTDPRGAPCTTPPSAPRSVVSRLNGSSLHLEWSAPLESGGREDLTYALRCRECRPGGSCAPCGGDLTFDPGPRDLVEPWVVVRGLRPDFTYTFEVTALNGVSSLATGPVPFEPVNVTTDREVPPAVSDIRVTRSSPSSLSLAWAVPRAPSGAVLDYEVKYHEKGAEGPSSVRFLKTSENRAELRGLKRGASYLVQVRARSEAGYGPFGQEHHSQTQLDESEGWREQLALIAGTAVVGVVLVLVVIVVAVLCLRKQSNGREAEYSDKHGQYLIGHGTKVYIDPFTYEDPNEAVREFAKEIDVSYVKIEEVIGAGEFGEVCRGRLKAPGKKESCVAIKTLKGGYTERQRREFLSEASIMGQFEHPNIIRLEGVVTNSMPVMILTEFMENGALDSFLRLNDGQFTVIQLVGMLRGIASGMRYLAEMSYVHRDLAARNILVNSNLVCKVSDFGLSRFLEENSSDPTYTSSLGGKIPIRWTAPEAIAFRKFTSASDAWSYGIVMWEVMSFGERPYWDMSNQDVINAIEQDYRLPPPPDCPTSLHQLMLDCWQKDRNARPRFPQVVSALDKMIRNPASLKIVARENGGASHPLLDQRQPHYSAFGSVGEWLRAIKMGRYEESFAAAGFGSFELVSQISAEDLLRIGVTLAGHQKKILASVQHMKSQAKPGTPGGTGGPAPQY
Chain of Myosin light chain kinase 2, skeletal/cardiac muscle (Q9H1R3 whole entry): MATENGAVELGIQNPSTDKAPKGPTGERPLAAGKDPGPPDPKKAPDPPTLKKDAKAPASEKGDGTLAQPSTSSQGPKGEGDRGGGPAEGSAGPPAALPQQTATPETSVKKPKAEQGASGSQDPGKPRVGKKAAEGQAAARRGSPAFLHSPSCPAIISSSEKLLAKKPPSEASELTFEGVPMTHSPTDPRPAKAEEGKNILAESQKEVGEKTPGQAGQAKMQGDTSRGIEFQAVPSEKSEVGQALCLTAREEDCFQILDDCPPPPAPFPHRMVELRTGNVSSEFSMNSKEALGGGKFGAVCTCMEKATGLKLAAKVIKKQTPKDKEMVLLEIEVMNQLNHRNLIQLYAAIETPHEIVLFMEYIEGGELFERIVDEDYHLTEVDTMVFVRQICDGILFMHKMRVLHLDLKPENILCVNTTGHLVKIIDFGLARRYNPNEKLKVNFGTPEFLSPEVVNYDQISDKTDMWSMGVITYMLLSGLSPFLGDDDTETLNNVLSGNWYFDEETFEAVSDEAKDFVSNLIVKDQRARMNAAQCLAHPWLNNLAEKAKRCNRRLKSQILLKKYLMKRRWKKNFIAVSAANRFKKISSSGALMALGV

## CNC(=O)c1cc(Oc2ccc(NC(=O)Nc3cc(C(C)(C)C)nn3-c3ccc4ncccc4c3)c(F)c2)ccn1 [REBASTINIB]
[1]
  IC50: > 1000 nM
[2]
  IC50: > 1000 nM
[3]
  T1/2: 6.53 h
[4]
  IC50: > 1000 nM
[5]
  IC50: > 1000 nM
[6]
  IC50: > 1000 nM
[7]
  IC50: 170 nM
[8]
  IC50: 330 nM
[9]
  IC50: > 1000 nM
[10]
  IC50: > 1000 nM
[11]
  IC50: 240 nM
[12]
  IC50: 90 nM
[13]
  Activity: Active
[14]
  IC50: 790 nM
[15]
  IC50: 88 nM
[16]
  IC50: > 1000 nM
[17]
  IC50: > 1000 nM
[18]
  IC50: 64 nM
[19]
  IC50: > 1000 nM
[20]
  IC50: > 1000 nM
[21]
  IC50: > 1000 nM
[22]
  IC50: > 1000 nM
[23]
  IC50: > 1000 nM
[24]
  IC50: > 1000 nM
[25]
  Kdiss: 0.002 min⁻¹
[26]
  IC50: 160 nM
[27]
  IC50: > 1000 nM
[28]
  Kdiss: 0.001 min⁻¹
[29]
  Activity: Active
